For one test, the system named is MDA-MB-231 cells. The experiment in a line: Immunocytochemistry of NOTCH1, nuclei and giant cell count. Format: cell-based. Also on record: Average Size nuclei / AVG Average Size nuclei: unit not given here. The following applies: for fraction of cells with large nuclei / overall level of NOTCH1 (ICC) / AVG Giant cells/ total nucl (%) / AVG Average Size nuclei / Average Size nuclei / Count (nuclei per field) / Giant cells /field / Giant cells/ total nucl (%): MDA-MB-231, 2 µM; for fraction of cells with large nuclei / overall level of NOTCH1 (ICC): 24 h; for fraction of cells with large nuclei: compared to DMSO, Fig. 8D; for overall level of NOTCH1 (ICC): Fig. 8A; for Average Size nuclei / Count (nuclei per field) / Giant cells /field / Giant cells/ total nucl (%): single images; for cell morphology: overview in comparison to compound C, Supplemental Fig. 9. On the procedure:
20,000 MDA-MB-231 cells were seeded on cover-slides (BD Bioscience), allowed to attach and treated with 2 µM compound for 24 h and 72 h upon reaching 80% confluence. For quantification of NOTCH1 signals and to monitor morphological changes immunocytochemistry staining to localize NOTCH1 was carried out as described above for C2C12 cells. Cellular morphology was visualized with Phalloidin (Thermofisher, cat # A22287), used at 1:2000 dilution and a NOTCH1 antibody used at 1:100 dilution (Cell signalling, cat #D6F11). Images were recorded using a Zeiss LSM 700 laser scanning microscope with a 40 × objective. Identical channel configuration and detector gain settings were used for quantification of fluorescence signals and a minimum of four images were recorded per condition. Secondary antibody control background signals were averaged and subtracted from each image and the same brightness and contrast adjustments were applied to all images before conducting histogram-based quantification of NOTCH1 signals. A 10 × objective was used for assessing morphological changes and a minimum of four and three images at 24 h and 72 h, respectively were recorded for quantification of nuclei count, size and number of giant cells. Images were processed using Fiji (ImageJ) software and objects were separated from background using Otsu thresholding until all nuclei were detectable. Nuclei objects were filled and nuclei particles were measured using size exclusion and circularity filter settings, 10-infinity (size) and 0,1–0,5 (circularity). Overlay images of nuclear stain and Phalloidin were used to manually count and annotate giant cells using Fiji’s cell counter.

For test [1], the system named is mNotch1ΔE fused to an HiBiT tag. The experiment in a line: HiBit reporter assay. The settings on record: for protein stability: summary Fig. 8E. Format: cell-based, mouse. Further details: key to protein stability: + indicates that the compound had an effect; -: − indicates that there was no significant effect in the respective assay. On the procedure:
The Notch1ΔE construct used to generate the Notch reporter cell line (see above) was first cloned in frame into the pBiT3.2-C [TK/HiBiT/Blast] Vector (Promega) and then stably introduced into HEK293T wild type cells, using Lipofectamine transfection, as described. Analogous to the Notch reporter cell line, Blasticidin was used as a selection marker (0.1 mg/ml) and stable cell lines with robust luciferase signals were generated. […] A clone (#D2) with an empty HiBit vector stably integrated was used as control.
20 µl containing 4,000 cells were seeded on 384-well pre-spotted compound plates (Greiner, cat #781080). Cells were incubated for 24 h and viability was determined using CellTiter-Fluor (Promega, cat # G6080), following the manufacturer’s instructions. Next, cells were subjected to the HiBit assay according to the manufacturer’s instructions (Promega, cat # N3030). Prior to cell lysis, the tissue culture plates were allowed to cool down to room temperate. Fluorescence and luminescence signals were recorded using a SpectraMax i3 (Molecular devices) and signals were read at different time-points to determine optimal signal stability. Cells cultivated only with DMSO were used as a reference to determine effects of compounds. MG132, Bafilomycin A1 and the GSI RO4929097 served as additional controls. Celastrol was used to determine the assay window, and a minimum of two technical replicates were measured per assay.
In general terms: The HiBiT peptide binds its large partner to form an active luciferase.

The next test has as its system RPMI-8402 cells. As to the kind of experiment: Growth inhibition, metabolic activity (CellTiter-Glo). It counts as cell-based. The following applies: Homo sapiens; RPMI-8402, six days; read-out: approximated IC50, growth (metabolic activity). The text has this: (§1) We next investigated whether compounds A-E affected growth and viability of cell lines from T-cell acute lymphoblastic leukaemia (T-ALL) and breast cancer, two tumour types in which elevated Notch signalling has been implicated in tumorigenesis. […] When testing analogues of compounds B and C, five of the seven B analogues and one of the two C analogues produced dose–response curves and IC50s, which however were higher compared to the original hits (Supplemental Fig. 5A; IC50s are presented in Supplemental Table 6).
(§2) Compounds were spotted on white 384-well tissue culture plates (Greiner, cat #781080) using an Echo 525 Acoustic liquid handler (Labcyte). Cells were grown to 80% confluence, detached if required, counted and 20 µl containing 2000–4000 cells per well was then seeded in each well and cultivated for three (4,000 cells seeded) and six days (2,000 cells seeded). […] Luciferase activity (reading out metabolic activity) was determined using the CellTiter-Glo 2.0 kit (CTG, Promega, cat #G9242) following the manufacturer’s instructions and luminescence was measured on a SpectraMaxi3 or Varioscan plate reader (Molecular Devices, Thermofisher).
Background: Cellular ATP, detected with luciferase, serves as a proxy for viable cell number.

Another test deals with JURKAT cells. Described as above. Format: cell-based. The settings on record: Homo sapiens, six days, read-out: approximated IC50, growth (metabolic activity).
Description: as §1, §2

The target in another test is T1, DHODH (Homo sapiens, UniProt Q02127).
T1 construct: purchased Reaction Biology (contract assay)
T1 sequence (Q02127 whole entry): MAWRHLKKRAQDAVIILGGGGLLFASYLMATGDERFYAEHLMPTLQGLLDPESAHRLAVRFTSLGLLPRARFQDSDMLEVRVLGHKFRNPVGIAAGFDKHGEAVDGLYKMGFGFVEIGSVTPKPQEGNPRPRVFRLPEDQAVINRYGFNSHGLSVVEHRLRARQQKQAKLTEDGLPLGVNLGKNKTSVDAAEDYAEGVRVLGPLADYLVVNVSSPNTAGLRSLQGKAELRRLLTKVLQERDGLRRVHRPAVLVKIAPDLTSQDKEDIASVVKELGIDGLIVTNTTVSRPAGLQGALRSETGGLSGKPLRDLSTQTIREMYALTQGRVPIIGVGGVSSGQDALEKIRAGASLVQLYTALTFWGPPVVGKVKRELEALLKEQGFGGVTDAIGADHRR
As to the kind of experiment: DHODH enzyme activity assay (Resorufin fluorescence, Reaction Biology). Format: biochemical. On the procedure:
DHODH enzyme activity was determined via fluorescence-based quantification (Resorufin fluorescence as endpoint measurement) at Reaction Biology. Reference compound BAY2402234 was measured in singletons in two biological replicates and compounds were measured in technical replicates within the indicated dose-ranges. Values were normalized to DMSO control and dose–response curves were fitted using the log(inhibitor) versus response – Variable slope (model: Y = Bottom + (Top–Bottom)/(1 + 10^((LogIC50-X)*HillSlope)) equation.

In the next test the test system is HEK293T cells. As to the kind of experiment: Growth inhibition, metabolic activity (CellTiter-Glo). Format: cell-based. The following applies: six days, Supplemental Fig. 5E. On the procedure:
We also tested three analogues to compound B and one analogue to compound C. […] To assess the effects of compound A-E in a cell line with very low levels of Notch signalling we repeated the growth inhibition assay in HEK293T cells.
as §2

The mark [2] stands for this setting: dose-range [M] 4.00E-05- 2.03E-09, 3 steps.
Where [3] appears, read: dose-range [M] 4.00E-05- 2.03E-09, 3 steps, read-out: IC50.
Where [4] appears, read: Fig. 7B, read-out: IC50s DHODH assay: IC50.

Where “and” joins values, the source holds several entries; their conditions need not be identical. Equal values may be shown once. Read-outs that look alike come from different tables or passages of the source.

As to `COc1cccc(CNc2ccc(N3CCCCC3)cc2)c1OCc1cccs1` [compound C], in the test with MDA-MB-231 cells, the “fraction of cells with large nuclei” value is listed as “increased fraction”, the “overall level of NOTCH1 (ICC)” value is “not affected” and the cell morphology result is recorded as “strongest effect”. Also, in the test on MDA-MB-231 cells (24h treatment, DMSO 1.4), the “AVG Giant cells/ total nucl (%)” value was 2.4%. Moreover, the “AVG Average Size nuclei” value in the test with MDA-MB-231 cells (24h treatment, DMSO 184.3) is recorded as 211.1. Moreover, in the test on MDA-MB-231 cells (24h treatment), the “Average Size nuclei” value was 215.8 and 220.5 and 221.4 and 186.7; the “Count (nuclei per field)” value is 1118.0 and 1274.0 and 861.0 and 1213.0; the Giant cells /field is 26.0 and 28.0 and 22.0 and 30.0; the “Giant cells/ total nucl (%)” value was 2.3% and 2.2% and 2.6% and 2.5%. For the same molecule, the “AVG Giant cells/ total nucl (%)” value with MDA-MB-231 cells (72h treatment, DMSO 0.7) was 3.8%. Further, the “AVG Average Size nuclei” value in the test on MDA-MB-231 cells (72h treatment, DMSO 184.1) was found to be 267.6. Besides, in the test on MDA-MB-231 cells (72h treatment), the “Average Size nuclei” value was 254.0 and 270.2 and 244.9 and 301.2; the “Count (nuclei per field)” value was 251.0 and 246.0 and 215.0 and 208.0; the Giant cells /field is 9.0 and 8.0 and 10.0; the “Giant cells/ total nucl (%)” value was 3.6% and 3.3% and 3.7% and 4.8%. Further, the HiBiT luciferase signal result in test [1] (24 h, 14-point dose-response, Supplemental Fig. 8D,G) is “dose-dependent decrease of luciferase signal”. Further, the protein stability result in test [1] was “+”. Besides, the half-inhibitory concentration (IC50) (as a rule, the concentration that inhibits the measured activity by half) with RPMI-8402 cells came out at 600 nM. Moreover, the IC50 with JURKAT cells stood at 4300 nM. In addition, at DHODH (Fig. 7B), the “DHODH enzyme activity (in words)” value is reported as “appeared to reduce DHODH enzyme activity across the dose response range”, the “IC50s DHODH assay: Hill-Slope” value is listed as -15.6 and the “IC50s DHODH assay: IC50” value is listed as “indeterminate”. In addition, the IC50 at DHODH (broader dose range, Fig. 7D, read-out: IC50, relative DHODH activity) came out at 1.01e-08 M. For the same molecule, at DHODH (setting [2]), the Hill-slope is -15.5 and the LogIC50 result is on record as “Unstable”. For the same molecule, at DHODH (overview in comparison to compound C, Supplemental Fig. 9), the DHODH assay entry is listed as “active”.

For the molecule `CC(C)(C(=O)NCC(F)(F)C(F)(F)F)C(=O)N[C@@H]1C(=O)Nc2ccccc2-c2ccccc21` [RO4929097, reference compound], in the test with MDA-MB-231 cells, the “fraction of cells with large nuclei” value is on record as “smaller increase”, the “overall level of NOTCH1 (ICC)” value is “trend towards reduced levels” and the cell morphology entry is “moderate effect”. In addition, in the test on MDA-MB-231 cells (24h treatment, DMSO 1.4), the “AVG Giant cells/ total nucl (%)” value is 1.7%. In the test on MDA-MB-231 cells (24h treatment, DMSO 184.3), the “AVG Average Size nuclei” value turned out to be 170.6. In addition, in the test on MDA-MB-231 cells (24h treatment, listed as GSI), the “Average Size nuclei” value was 168.5 and 151.9 and 180.3 and 181.9; the “Count (nuclei per field)” value is 1431.0 and 1167.0 and 1371.0 and 1390.0; the Giant cells /field was 23.0 and 26.0 and 17.0 and 24.0; the “Giant cells/ total nucl (%)” value was 1.6% and 2.2% and 1.2% and 1.7%. Moreover, the “AVG Giant cells/ total nucl (%)” value with MDA-MB-231 cells (72h treatment, DMSO 0.7) is 1.2%. Moreover, the “AVG Average Size nuclei” value with MDA-MB-231 cells (72h treatment, DMSO 184.1) came out at 205.4. Also, in the test with MDA-MB-231 cells (72h treatment, listed as GSI), the “Average Size nuclei” value was 177.5 and 237.7 and 201.1; the “Count (nuclei per field)” value was 508.0 and 335.0 and 447.0; the Giant cells /field is 4.0 and 6.0 and 5.0; the “Giant cells/ total nucl (%)” value is 0.8% and 1.8% and 1.1%.

Turning to `NC(=O)c1c(NC(=O)NCc2cccnc2)sc2c1CCC2` [compound D], in test [1], the protein stability entry was “-”. Moreover, in the test on HEK293T cells, the growth inhibitory effect result is “did not exert a growth inhibitory effect”. For the same molecule, the “IC50s DHODH assay: Hill-Slope” value against DHODH (Fig. 7B) is -5.0. Further, the Hill-slope at DHODH (setting [2]) is given as -5.0. The half-maximal inhibitory concentration (IC50) at DHODH (setting [3]) came to 9.6e-06 M.

On to `CC(C)(C)c1ccc(Oc2ccc(N)cn2)cc1` [CB-103, reference compound], for which the concentration for half-maximal inhibition (IC50) in the test on RPMI-8402 cells worked out at 900 nM; in the test on JURKAT cells, 1700 nM.

Consider `Cc1nn(-c2nc3ccccc3s2)c(O)c1C1OC(=O)c2ccccc21` (stereo not drawn) [compound E], for which the protein stability result in test [1] was “-”. In addition, in the test on HEK293T cells, the growth inhibitory effect result is listed as “did not exert a growth inhibitory effect”. Also, the “IC50s DHODH assay: Hill-Slope” value against DHODH (Fig. 7B) was -4.4. The molecule further displayed a Hill-slope on DHODH (setting [2]) of -4.4. Besides, the half-inhibitory concentration (IC50) at DHODH (setting [3]) came to 3.7e-05 M.

As to `CCc1c(C(=O)N(C)Cc2cnn(C(C)C)c2)[nH]c2ccccc12` [compound A], in test [1], the protein stability entry is listed as “-”. Also, the growth inhibitory effect result with HEK293T cells is given as “did not exert a growth inhibitory effect”. Moreover, the “IC50s DHODH assay: Hill-Slope” value against DHODH (Fig. 7B) is recorded as -4.5. The IC50 at DHODH (setting [4]) is 2.86e-05 M; on DHODH (setting [3]) it was 2.9e-05 M. Also, on DHODH (setting [2]), the Hill-slope is recorded as -4.5.

Take `Cc1ccc2[nH]c3c(c2c1)CCOC31CCN(Cc2ccccc2-c2ccccc2)CC1` [compound B]: in test [1], the protein stability result was “+”. Further, the 50% inhibitory concentration (IC50) in the test on RPMI-8402 cells is 500 nM; in the test with JURKAT cells it was 300 nM; on DHODH (setting [4]) it was 2.2e-06 M; on DHODH (setting [3]), 2.2e-06 M. The “IC50s DHODH assay: Hill-Slope” value at DHODH (Fig. 7B) is on record as -5.7. In addition, the Hill-slope on DHODH (setting [2]) was -5.7.
